Data on 1 molecule can be found in US20230102836A1, “Amoebicidal Compositions for Contact Lens Solutions” (University of the West of Scotland, priority 2019, published 2023).

Where “and” joins values, the source holds several entries; their conditions need not be identical. Equal entries are not always repeated. Bounds are passed on as bounds.

The subject of data set [1] is A. castellanii trophozoites. In words: Cytotoxicity assay on trophozoites (resazurin / alamarBlue). Format: cell-based, Acanthamoeba castellanii ATCC 50370. As to the method: (§1) Acanthamoeba castellanii ATCC 50370 trophozoites and cysts were cultured in Peptone Glucose (PG) medium and encystment medium (Chagla A H, Griffiths A J (1974) Microbiology: 85(1): 139-145) respectively at 25° C. Cysts were prepared by incubating trophozoites for 8 days in encystment medium and integrity validated with calcofluor (0.25 μg/ml) assay (Gatti S et al (2010) J. Med. Microbiol.; 59: 1324-1330) or sodium dodecyl sulfate (SDS, 0.5% w/v) disintegration assay (Dudley R et al (2005) Acta Trop.; 9: 100-8) and microscopic observation.
The compounds used in this study all contained alkyl-carbon chains: three APCs [dodecyl-PC (APC12), tetradecyl-PC. (APC14) and hexadecyl-PC (APC16)] (Anatrace) and four QACs [docdecyl-TMAB (QAC12), tetradecyl-TMAB (QAC14), hexadecyl-TMAB (QAC16) and octadecyl-TMAB (QAC18)](Sigma). All were prepared to a stock concentration of 1 mg/ml and diluted as required by the experimental protocol in the cytotoxicity assays. […]
[…] Resazurin (7-Hydroxy-31-phenoxazin-3-one 10-oxide; 5 mg/ml; McBride J et al (2005) J. Clin. Microbiol.; 43: 629-634) and trypan blue (0.4 μg/ml; Mafra C S P et al (2013) Investig. Ophthalmol. Vis. Si.; 54: 6363-6372) were then added to trophozoites and cysts respectively after being exposed to the compounds and the cell viability estimated microscopically and from changes in absorbance (at 595 nm and 570 nm) respectively.
(§2) Efficacy was expressed as a percentage of untreated controls for each drug concentration used and the data used to calculate the IC50. Cell density was estimated using the modified Neubaur hemocytometer and expressed as cells/ml.
For orientation: Alamar Blue is a resazurin reagent that responds to reducing activity.

For data set [2] the following is noted: QACs; cited from earlier work.
Another data set deals with gDNA from A. castellanii. In words: QAC-DNA interaction assay. The settings on record: DNA:QAC ratios 1:0, 1:1, 1:10, 1:20; 15 min. It counts as binding, Acanthamoeba castellanii. As to the method:
FIGS. 3A and 3B show the QAC-DNA interaction. The absorbance of genomic DNA (0.6 ng/ml) extracted from A. castellani trophozoites measured at 260 nm with the Nanodrop after incubating for 15 minutes with 0 ng/ml, 0.6 ng/ml, 6 ng/ml or 12 ng/ml of QAC12 (FIG. 3A) or QAC16 (FIG. 3B) to give ratios of 1:0, 1:1, 1:10 and 1:20. DNA absorbance increased and decreased with increased […] and [QAC12] respectively. Data is mean absorbance at 260 nm±SD; n=4 independent experiments performed in triplicates.
Genomic deoxynucleic acids (gDNA) from 10^8 A. castellanii trophozoites (treated with and without QAC) were extracted from cells harvested by centrifugation (850×g, 10 min), lysed with UNSET buffer (8M urea, […] NaCl, 2% SDS, […] ethylenediaminetetraacetic acid (EDTA), […] Tris-HCl, pH 7.5) and the DNA extracted with phenol-chloroform (1:1 v/v). The biphasic suspension with DNA enriched on the […] was centrifuged (12,000×g for 15 min, 4° C.) for clear separation and transferred to a new microcentrifuge tube. The DNA was precipitated with cold ethanol (100%, v/v) and 0.3M sodium acetate, washed twice with 70% (v/v) ethanol (12,000×g for 10 min, 4° C.), air dried and resuspended in distilled water. […]

A further data set deals with A. castellanii cysts. The experiment in a line: Cytotoxicity assay on cysts (trypan blue). Format: cell-based, Acanthamoeba castellanii ATCC 50370. The following applies: Acanthamoeba castellanii, read-out: IC50 A. castellanii cysts. As to the method: as §1
The compounds used in this study all contained alkyl-carbon chains: three APCs [dodecyl-PC (APC12), tetradecyl-PC. (APC14) and hexadecyl-PC (APC16)] (Anatrace) and four QACs [docdecyl-TMAB (QAC12), tetradecyl-TMAB (QAC14), hexadecyl-TMAB (QAC16) and octadecyl-TMAB (QAC18)](Sigma). All were prepared to a stock concentration of 1 mg/ml and diluted as required by the experimental protocol in the cytotoxicity assays. A. castellanii trophozoites and cysts (at 10^5 cells/ml) with or without APCs or QACs (concentrations ranging from […] doubly diluted to 0.04 μg/ml to a final volume of 100 μl) in a 96-well plate were incubated at 25° C. for a duration determined by the experimental protocol.
For the combined assay, similar concentrations of QAC18 and APC16 were prepared and 18.75 μg/ml and 37.5 μg/ml of QAC12 added (to a final volume of 100 μl) were added to 10^5 cells/mi in a 96-well plate and later incubated at 25° C. for a duration determined by the experimental protocol. Resazurin (7-Hydroxy-31-phenoxazin-3-one 10-oxide; 5 mg/ml; McBride J et al (2005) J. Clin. Microbiol.; 43: 629-634) and trypan blue (0.4 μg/ml; Mafra C S P et al (2013) Investig. Ophthalmol. Vis. Si.; 54: 6363-6372) were then added to trophozoites and cysts respectively after being exposed to the compounds and the cell viability estimated microscopically and from changes in absorbance (at 595 nm and 570 nm) respectively.
as §2

The subject of data set [3] is Acanthamoeba trophozoites. In words: Checkerboard dilution QAC-APC interaction (Bliss model). Format: cell-based, Acanthamoeba castellanii. The following applies: APC12, APC14, APC16; 96 h at 25° C. As to the method:
Acanthamoeba trophozoites (10^5 cells/ml. n=5/treatment) treated with 100 μg/ml doubly diluted to 0.06 μg/ml of QAC12 (FIG. 7A), […], QAC16 (FIG. 7C) and QAC18 (FIG. 7D) with APC 12 (i), APCI 4 (ii) and APC16 (iii) for 96 h at 25° C. Cell viability estimated by the alamarBlue assay the dose-response curves used to produce a surface analysis (right panel) and the interaction profile determined using the Bliss model. The degree of interaction characterised by the QCScore heuristic score are produced as heat map (left panel). The colour of each cell in the heatmap and the surface analysis represents the assay response at that dose combination; red to orange, antagonistic: yellow to green, additive and blue, synergistic.
The change in potency between QAC and APC prompted us to used the checkerboard dilution method to identify synergistic interactions (FIG. 7A-D). Three interaction profiles, antagonistic (orange to red), additive (yellow to green) and synergistic (blue) were observed, with optimal synergistic interactions deemed to be significant occurring between 20-38%; (FIG. 7).

The subject of data set [4] is A. castellanii trophozoites. The experiment in a line: Trophozoite-cyst conversion in encystment medium. Format: cell-based, Acanthamoeba castellanii ATCC 50370. The settings on record: encystment medium supplemented with 37.5 μg/ml of QAC12. As to the method:
Acanthamoeba trophozoites (10^5 cells/ml) incubated for up to 192 h in encystment medium inoculated with (dark grey) and without (light grey) QAC12 at 25° C. The number of trophozoites remaining estimated microscopically and expressed as a percent of total trophozoites at the start of the assay. Data is mean […]±SD; n=4 independent experiments performed in triplicates.
as §1

Turning to `CCCCCCCCCCCC[N+](C)(C)C.[Br-]` [QAC12, Dodecyltrimethyl ammonium bromide], in data set [1] (96 h at 25° C., peak at 37.7 μg/ml, alamarBlue), the “Increase in absorbance at 570 nm (cell density) relative to control cells” value is given as 4 fold. The IC50 in data set [1] (Acanthamoeba castellanii, Table 2, read-out: IC50 A. castellanii trophozoites) was > 37.5 µg/mL and > 122 µM; in the data set with A. castellanii cysts, > 37.5 µg/mL and > 122 µM. Moreover, the “Effect on trophozoite biomass” value in data set [1] (FIG. 4) is listed as “dose-dependent increased biomass”. In addition, in data set [1] (at up to 37.5 μg/ml), the “Activity against A. castellanii trophozoites” value was “inactive”. Besides, the CMC entry in data set [2] was “^+3.5 ± 0.3 μM”. The “Change of gDNA absorbance at 260 nm with increasing QAC” value with gDNA from A. castellanii is “dose-dependent decreased absorbance”. Besides, the “Interaction profile of QAC combined with APCs” value in data set [3] is listed as “Significant synergistic ‘well defined’ interactions were more predominant”. Besides, the Delay of encystation in data set [4] amounted to 96 h.

In general, IC50 refers to the concentration that gives 50% inhibition.
